# Assay results as given in PubChem BioAssay (NCI).
#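 The concentration for 50% growth inhibition is given as GI50. TGI: total growth inhibition.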
# Key:
# Experiment in all cases: NCI anticancer screen, dose series, 384-well format
# 786-0 renal = tested on: 786-0 renal
# A498 renal = tested on: A498 renal
# A549 NSCLC = tested on: A549 NSCLC
# ACHN renal = tested on: ACHN renal
# BT-549 breast = tested on: BT-549 breast
# CAKI-1 renal = tested on: CAKI-1 renal
# COLO 205 colon = tested on: COLO 205 colon
# DU-145 prostate = tested on: DU-145 prostate
# EKVX NSCLC = tested on: EKVX NSCLC
# HCT-116 colon = tested on: HCT-116 colon
# HCT-15 colon = tested on: HCT-15 colon
# HL-60(TB) leukemia = tested on: HL-60(TB) leukemia
# HOP-62 NSCLC = tested on: HOP-62 NSCLC
# HOP-92 NSCLC = tested on: HOP-92 NSCLC
# HS 578T breast = tested on: HS 578T breast
# HT29 colon = tested on: HT29 colon
# IGROV1 ovarian = tested on: IGROV1 ovarian
# K-562 leukemia = tested on: K-562 leukemia
# KM12 colon = tested on: KM12 colon
# M14 melanoma = tested on: M14 melanoma
# MALME-3M melanoma = tested on: MALME-3M melanoma
# MCF7 breast = tested on: MCF7 breast
# MDA-MB-231 breast = tested on: MDA-MB-231 breast
# MDA-MB-435 melanoma = tested on: MDA-MB-435 melanoma
# MDA-MB-468 breast = tested on: MDA-MB-468 breast
# MOLT-4 leukemia = tested on: MOLT-4 leukemia
# NCI-H226 lung = tested on: NCI-H226 lung
# NCI-H23 lung = tested on: NCI-H23 lung
# NCI-H322M lung = tested on: NCI-H322M lung
# NCI-H460 NSCLC = tested on: NCI-H460 NSCLC
# NCI-H522 lung = tested on: NCI-H522 lung
# OVCAR-3 ovarian = tested on: OVCAR-3 ovarian
# OVCAR-4 ovarian = tested on: OVCAR-4 ovarian
# OVCAR-5 ovarian = tested on: OVCAR-5 ovarian
# OVCAR-8 ovarian = tested on: OVCAR-8 ovarian
# PC-3 prostate = tested on: PC-3 prostate
# RXF 393 renal = tested on: RXF 393 renal
# SF-268 CNS = tested on: SF-268 CNS
# SF-295 CNS = tested on: SF-295 CNS
# SF-539 CNS = tested on: SF-539 CNS
# SK-MEL-2 melanoma = tested on: SK-MEL-2 melanoma
# SK-MEL-28 melanoma = tested on: SK-MEL-28 melanoma
# SK-MEL-5 melanoma = tested on: SK-MEL-5 melanoma
# SK-OV-3 ovarian = tested on: SK-OV-3 ovarian
# SN12C renal = tested on: SN12C renal
# SNB-19 CNS = tested on: SNB-19 CNS
# SNB-75 CNS = tested on: SNB-75 CNS
# SR leukemia = tested on: SR leukemia
# SW-620 colon = tested on: SW-620 colon
# T-47D breast = tested on: T-47D breast
# TK-10 renal = tested on: TK-10 renal
# U251 glioblastoma = tested on: U251 glioblastoma
# UACC-257 melanoma = tested on: UACC-257 melanoma
# UACC-62 melanoma = tested on: UACC-62 melanoma
# UO-31 renal = tested on: UO-31 renal
structure (smiles),measurement,setting,value
O=C1COc2c(CCNCCN(C(=O)CCNCCc3ccc(Cl)c(Cl)c3)C3CCCCC3)ccc(O)c2N1,GI50,786-0 renal,15.8 µM
same,TGI,786-0 renal,29.3 µM
same,GI50,A498 renal,14.9 µM
same,TGI,A498 renal,28.2 µM
same,GI50,A549 NSCLC,17.5 µM
same,TGI,A549 NSCLC,31.4 µM
same,GI50,ACHN renal,15.5 µM
same,TGI,ACHN renal,28.9 µM
same,GI50,BT-549 breast,3.29 µM
same,TGI,BT-549 breast,12 µM
same,GI50,CAKI-1 renal,14.5 µM
same,TGI,CAKI-1 renal,27.7 µM
same,GI50,COLO 205 colon,2690 nM
same,TGI,COLO 205 colon,6.13 µM
same,GI50,DU-145 prostate,16.2 µM
same,TGI,DU-145 prostate,29.8 µM
same,GI50,EKVX NSCLC,12.4 µM
same,TGI,EKVX NSCLC,24.9 µM
same,GI50,HCT-116 colon,11.5 µM
same,TGI,HCT-116 colon,23.7 µM
same,GI50,HCT-15 colon,17.8 µM
same,TGI,HCT-15 colon,31.9 µM
same,GI50,HL-60(TB) leukemia,1830 nM
same,TGI,HL-60(TB) leukemia,3.25 µM
same,GI50,HOP-62 NSCLC,14.5 µM
same,TGI,HOP-62 NSCLC,27.7 µM
same,GI50,HOP-92 NSCLC,1890 nM
same,TGI,HOP-92 NSCLC,4.35 µM
same,GI50,HS 578T breast,1760 nM
same,TGI,HS 578T breast,3.44 µM
same,GI50,HT29 colon,13.4 µM
same,TGI,HT29 colon,26.2 µM
same,GI50,IGROV1 ovarian,7.16 µM
same,TGI,IGROV1 ovarian,19.7 µM
same,GI50,K-562 leukemia,3.24 µM
same,TGI,K-562 leukemia,10.3 µM
same,GI50,KM12 colon,11.1 µM
same,TGI,KM12 colon,23.3 µM
same,GI50,M14 melanoma,4.2 µM
same,TGI,M14 melanoma,12.9 µM
same,GI50,MALME-3M melanoma,5.14 µM
same,TGI,MALME-3M melanoma,15.6 µM
same,GI50,MCF7 breast,1890 nM
same,TGI,MCF7 breast,3.38 µM
same,GI50,MDA-MB-231 breast,1880 nM
same,TGI,MDA-MB-231 breast,10.7 µM
same,GI50,MDA-MB-435 melanoma,2120 nM
same,TGI,MDA-MB-435 melanoma,4.44 µM
same,GI50,MDA-MB-468 breast,1830 nM
same,TGI,MDA-MB-468 breast,3.27 µM
same,GI50,MOLT-4 leukemia,2010 nM
same,TGI,MOLT-4 leukemia,3.45 µM
same,GI50,NCI-H226 lung,12.3 µM
same,TGI,NCI-H226 lung,24.8 µM
same,GI50,NCI-H23 lung,14.8 µM
same,TGI,NCI-H23 lung,28 µM
same,GI50,NCI-H322M lung,14.2 µM
same,TGI,NCI-H322M lung,27.3 µM
same,GI50,NCI-H460 NSCLC,2260 nM
same,TGI,NCI-H460 NSCLC,4.96 µM
same,GI50,NCI-H522 lung,2500 nM
same,TGI,NCI-H522 lung,5.7 µM
same,GI50,OVCAR-3 ovarian,10.3 µM
same,TGI,OVCAR-3 ovarian,22 µM
same,GI50,OVCAR-4 ovarian,16.1 µM
same,TGI,OVCAR-4 ovarian,29.7 µM
same,GI50,OVCAR-5 ovarian,16.2 µM
same,TGI,OVCAR-5 ovarian,29.8 µM
same,GI50,OVCAR-8 ovarian,15.1 µM
same,TGI,OVCAR-8 ovarian,28.5 µM
same,GI50,PC-3 prostate,10.8 µM
same,TGI,PC-3 prostate,22.8 µM
same,GI50,RXF 393 renal,2860 nM
same,TGI,RXF 393 renal,10.8 µM
same,GI50,SF-268 CNS,4.73 µM
same,TGI,SF-268 CNS,16.1 µM
same,GI50,SF-295 CNS,13.7 µM
same,TGI,SF-295 CNS,26.6 µM
same,GI50,SF-539 CNS,11.2 µM
same,TGI,SF-539 CNS,23.3 µM
same,GI50,SK-MEL-2 melanoma,1790 nM
same,TGI,SK-MEL-2 melanoma,3.18 µM
same,GI50,SK-MEL-28 melanoma,4.31 µM
same,TGI,SK-MEL-28 melanoma,14.6 µM
same,GI50,SK-MEL-5 melanoma,6.31 µM
same,TGI,SK-MEL-5 melanoma,18.1 µM
same,GI50,SK-OV-3 ovarian,15.5 µM
same,TGI,SK-OV-3 ovarian,28.9 µM
same,GI50,SN12C renal,15.8 µM
same,TGI,SN12C renal,29.3 µM
same,GI50,SNB-19 CNS,16.8 µM
same,TGI,SNB-19 CNS,30.5 µM
same,GI50,SNB-75 CNS,2280 nM
same,TGI,SNB-75 CNS,7.25 µM
same,GI50,SR leukemia,1750 nM
same,TGI,SR leukemia,3.14 µM
same,GI50,SW-620 colon,5.25 µM
same,TGI,SW-620 colon,16.8 µM
same,GI50,T-47D breast,4.22 µM
same,TGI,T-47D breast,14.6 µM
same,GI50,TK-10 renal,10.4 µM
same,TGI,TK-10 renal,22.2 µM
same,GI50,U251 glioblastoma,5.85 µM
same,TGI,U251 glioblastoma,18 µM
same,GI50,UACC-257 melanoma,2750 nM
same,TGI,UACC-257 melanoma,6.62 µM
same,GI50,UACC-62 melanoma,2100 nM
same,TGI,UACC-62 melanoma,4.82 µM
same,GI50,UO-31 renal,17.8 µM
same,TGI,UO-31 renal,31.7 µM
